Measured values reported in US7129213B2, “Tripeptides and tripeptide derivatives for the treatment of neurodegenerative diseases” (Neurotell AG, priority 2002, dated 2006).
Structures can show the parent of a compound that is named as a salt. Where a SMILES comes first, the peptide text is derived from it.

System: rats previously treated by vincristine
Experiment: Vincristine model, sound avoidance conditioning (pole climbing test)
Assay type: in vivo, rat
Procedure: The rats were slightly anesthetized by ether, an incision was made into the skin of the skull, and the skull was pierced by means of a dental burr. A metal needle was stereotaxically directed to the lateral ventricle, and then fixed by means of dental cement. Every day of the experiment, the patency of the needle was controlled.
Three days after introducing the needle (recovery from the postoperative shock) the non-anesthetized animals were injected 5 μl of normal saline with vincristine in a dose of 5 μg/kg/day. […] This administration was repeated every day for a period of five days.
Three days after the last administration of vincristine, the animals were chloralized (360 mg/kg), and, starting at the external carotid artery, a permanent floating catheter was retrogradely introduced into a common carotid artery. This catheter left again on the top of the skull, and was fixed by means of dental cement. After two days the animals had recovered from the postoperative shock. […] The steady state was reached on Day 3 after the last administration, and the model was stable for a period of several months. Once this lapse of time passed, a second type of degeneration was observed that affects the white matter, and was certainly due to apoptosis phenomena).
Five days after the last administration of vincristine, the twenty rats were randomly divided into two groups of 10 animals each: • one group of 10 rats received an intracarotid injection of 1 ml/kg/day of normal saline (controls) for a period of 10 days. • one group of 10 rats received 20 mg/kg/day of HCl-Gly-Phe-ProNH2 dissolved in normal saline for a period of 10 days. The injections were given at 9.00 a.m.
During the last five days of treatment, the rats were placed under the common learning conditions of the three models between 10.00 a.m. and 11.00 a.m. (see below).
During the last five days of treatment, at 10.00 a.m. (1 hour after the administration of HCl-Gly-Phe-ProNH2), the animals were placed into a learning cage for sound avoidance conditioning (Conditioning avoidance response). The animals learned to climb a pole first to escape from and then to avoid an electric shock. This method was standardized and quantified in our laboratory (see Le Poncin M., Lafitte J. C., Rapin J. R., Sound Avoidance Conditioning and a Mathematical approach to the description of acquisition performance, Math. Biosciences 59 (1982) 242–268).
For a period of five days, the animals were placed everyday under these learning conditions for a total of ten tests a day. Results are expressed as percentage of adequate responses, and the kinetics of the responses is represented by a multi-exponential maximum curve.
The curve maximum represents the learning capacities. The slope of the curve evaluates the learning speed. The area under the curve (AUC) represents a good evaluation of all conditioning parameters. The maximum value of the area under the curve is 500, if the animals show 100% adequate responses as early as Day 0. In fact, an average area under the curve is calculated per day, what amounts to a maximum value of 100. In the absolute control animals, this average area under the curve is equal to 40+/−4.

NCC(=O)N[C@@H](Cc1ccccc1)C(=O)N1CCC[C@H]1C(N)=O [HCl-Gly-Phe-ProNH2, glycyl-L-phenylalanyl-L-prolineamide] (H-Gly-Phe-Pro-NH2)
percentage of adequate responses D0 (vincristine 5 μg/kg/day ICV 5 days, 20 mg/kg/day intracarotid 10 days, learning day D0): 0%
AUC (average area under the learning curve per day) (vincristine model, 20 mg/kg/day 10 days): **24.8 +/− 3.2
percentage of adequate responses D1 (vincristine model, 20 mg/kg/day 10 days, learning day D1): 5 +/− 2%
percentage of adequate responses D2 (vincristine model, 20 mg/kg/day 10 days, learning day D2): **20 +/− 4%
percentage of adequate responses D3 (vincristine model, 20 mg/kg/day 10 days, learning day D3): **40 +/− 5%
percentage of adequate responses D4 (vincristine model, 20 mg/kg/day 10 days, learning day D4): **59 +/− 6%
effect on learning parameters (vincristine model, intracarotid injection treatment): partly restores the learning parameters
